According to US10988449B2, “Isoxazole derivatives as nuclear receptor agonists and uses thereof” (IL DONG PHARMACEUTICAL CO., LTD., priority 2017, dated 2021):
pEC50: −log10 of the molar value.

Molecular target: T1, human FXR (Homo sapiens, UniProt Q96RI1)
T1 construct: expressed in transfected cells
T1 sequence (Q96RI1 1-486): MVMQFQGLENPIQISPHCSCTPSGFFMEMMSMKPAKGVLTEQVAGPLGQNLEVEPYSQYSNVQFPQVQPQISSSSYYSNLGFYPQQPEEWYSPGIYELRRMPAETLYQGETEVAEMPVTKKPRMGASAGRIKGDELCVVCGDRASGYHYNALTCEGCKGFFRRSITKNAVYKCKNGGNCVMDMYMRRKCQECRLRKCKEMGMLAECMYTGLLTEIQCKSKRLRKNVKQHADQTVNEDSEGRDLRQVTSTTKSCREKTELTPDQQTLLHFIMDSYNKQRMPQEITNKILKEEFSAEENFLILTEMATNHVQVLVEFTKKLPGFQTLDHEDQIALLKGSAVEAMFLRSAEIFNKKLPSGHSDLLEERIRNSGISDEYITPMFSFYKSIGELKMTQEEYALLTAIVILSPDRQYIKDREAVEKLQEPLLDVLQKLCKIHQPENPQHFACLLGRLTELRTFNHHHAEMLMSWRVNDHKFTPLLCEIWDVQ
Assay: FXR reporter assay (cellular FXR activities)
Assay type: cell-based
Details: for pEC50: FXR reporter cells, 24 hours incubation, luciferase, read-out: Reporter Cell EC50; for Emax: read-out: Emax (%) (GW4064 Emax = 100%)
Method: FXR reporter assay was performed to measure cellular FXR activities of the compounds in the present invention. FXR reporter cells with high expression level of human FXR were seeded into 96-well cell culture plates, and incubated for 1-2 hours at 37° C. under 5% CO2 atmosphere. The invented compounds diluted in DMSO with various concentrations were added to the 96-well cell culture plates, and they were incubated for 24 hours at 37° C. under 5% CO2 atmosphere. After incubation, we calculate EC50 by using luciferase substrate.

pEC50	Emax [%]	Compound
< 6.00	> 100	O=C(O)c1ccc(C#Cc2ccc(OCc3c(-c4c(Cl)cccc4Cl)noc3C3CC3)cc2)cc1 [Compound I-1, 4-((4-((5-cyclopropyl-3-(2,6-dichlorophenyl)isoxazol-4-yl)methoxy)phenyl)ethynyl)benzoic acid]
6.70 to 7.22	91	O=C(O)c1ccc(C#Cc2ccc(OCc3c(-c4c(Cl)cccc4Cl)noc3C3CC3)cc2C(F)(F)F)cc1 [Compound I-4, 4-((4 ((5-cyclopropyl-3-(2,6-dichlorophenyl)isoxazol-4-yl)methoxy)-2-(trifluoromethyl)phenyl)ethynyl)benzoic acid]
6.00 to 6.70	84	C#Cc1ccc(OCc2c(-c3c(Cl)cccc3Cl)noc2C2CC2)cc1Cl [Compound I-5, 4-((3-chloro-4-ethynylphenoxy)methyl)-5-cyclopropyl-3-(2,6-dichlorophenyl)isoxazole]
< 6.00	85	COC(=O)c1cccc(C#Cc2ccc(OCc3c(-c4c(Cl)cccc4Cl)noc3C3CC3)cc2Cl)c1 [Compound I-7, methyl 3-((2-chloro-4-((5-cyclopropyl-3-(2,6-dichlorophenyl)isoxazol-4-yl)methoxy)phenyl)ethynyl)benzoate]
< 6.00	98	CCOC(=O)Nc1cc(C#Cc2ccc(OCc3c(-c4c(Cl)cccc4Cl)noc3C3CC3)cc2Cl)cc(C(=O)OC)c1 [Compound I-8, methyl 3-((2-chloro-4-((5-cyclopropyl-3-(2,6-dichlorophenyl)isoxazol-4-yl)methoxy)phenyl)ethynyl)-5-((ethoxycarbonyl)amino)benzoate]
< 6.00	90	CCOC(=O)Nc1cccc(C#Cc2ccc(OCc3c(-c4c(Cl)cccc4Cl)noc3C3CC3)cc2Cl)c1 [Compound I-11, ethyl (3-((2-chloro-4-((5-cyclopropyl-3-(2,6-dichlorophenyl)isoxazol-4-yl)methoxy)phenyl)ethynyl)phenyl)carbamate]
6.00 to 6.70	> 100	NS(=O)(=O)c1cccc(C#Cc2ccc(OCc3c(-c4c(Cl)cccc4Cl)noc3C3CC3)cc2Cl)c1 [Compound I-12, 3-((2-chloro-4-((5-cyclopropyl-3-(2,6-dichlorophenyl)isoxazol-4-yl)methoxy)phenyl)ethynyl)benzenesulfonamide]
6.00 to 6.70	90	CS(=O)(=O)Nc1cccc(C#Cc2ccc(OCc3c(-c4c(Cl)cccc4Cl)noc3C3CC3)cc2Cl)c1 [Compound I-13, N-(3-((2-chloro-4-((5-cyclopropyl-3-(2,6-dichlorophenyl)isoxazol-4-yl)methoxy)phenyl)ethynyl)phenyl)methanesulfonamide]
6.00 to 6.70	96	NS(=O)(=O)Nc1cccc(C#Cc2ccc(OCc3c(-c4c(Cl)cccc4Cl)noc3C3CC3)cc2Cl)c1 [Compound I-14, N-(3-((2-chloro-4-((5-cyclopropyl-3-(2,6-dichlorophenyl)isoxazol-4-yl)methoxy)phenyl)ethynyl)phenyl)sulfamide]
6.00 to 6.70	89	O=C(O)c1ccc(C#Cc2ccc(OCc3c(-c4c(Cl)cccc4Cl)noc3C3CC3)cc2Cl)nc1 [Compound I-17, 6-((2-chloro-4-((5-cyclopropyl-3-(2,6-dichlorophenyl)isoxazol-4-yl)methoxy)phenyl)ethynyl)nicotinic acid]
6.00 to 6.70	87	O=C(O)c1ccnc(C#Cc2ccc(OCc3c(-c4c(Cl)cccc4Cl)noc3C3CC3)cc2Cl)c1 [Compound I-18, 2-((2-chloro-4-((5-cyclopropyl-3-(2,6-dichlorophenyl)isoxazol-4-yl)methoxy)phenyl)ethynyl)isonicotinic acid]
≥ 7.70	99	O=C(O)c1cccc(C#Cc2ccc(OCc3c(-c4c(Cl)cccc4Cl)noc3C3CC3)cc2Cl)n1 [Compound I-19, 6-((2-chloro-4-((5-cyclopropyl-3-(2,6-dichlorophenyl)isoxazol-4-yl)methoxy)phenyl)ethynyl)picolinic acid]
6.70 to 7.22	93	CN(C)c1cc(C(=O)O)ccc1C#Cc1ccc(OCc2c(-c3c(Cl)cccc3Cl)noc2C2CC2)cc1Cl [Compound I-22, 4-((2-chloro-4-((5-cyclopropyl-3-(2,6-dichlorophenyl)isoxazol-4-yl)methoxy)phenyl)ethynyl)-3-(dimethylamino)benzoic acid]
6.70 to 7.22	> 100	CN(C)c1cc(C#Cc2ccc(OCc3c(-c4c(Cl)cccc4Cl)noc3C3CC3)cc2Cl)ccc1C(=O)O [Compound I-23, 4-((2-chloro-4-((5-cyclopropyl-3-(2,6-dichlorophenyl)isoxazol-4-yl)methoxy)phenyl)ethynyl)-2-(dimethylamino)benzoic acid]
7.22 to 7.70	> 100	CCN(CC)c1cc(C#Cc2ccc(OCc3c(-c4c(Cl)cccc4Cl)noc3C3CC3)cc2Cl)cc(C(=O)O)c1 [Compound I-24, 3-((2-chloro-4-((5-cyclopropyl-3-(2,6-dichlorophenyl)isoxazol-4-yl)methoxy)phenyl)ethynyl)-5-(diethylamino)benzoic acid]
6.00 to 6.70	> 100	CN(C)c1ccc(C(=O)O)cc1C#Cc1ccc(OCc2c(-c3c(Cl)cccc3Cl)noc2C2CC2)cc1Cl [Compound I-26, 3-((2-chloro-4-((5-cyclopropyl-3-(2,6-dichlorophenyl)isoxazol-4-yl)methoxy)phenyl)ethynyl)-4-(dimethylamino)benzoic acid]
7.22 to 7.70	91	O=C(O)c1cc(Cl)cc(C#Cc2ccc(OCc3c(-c4c(Cl)cccc4Cl)noc3C3CC3)cc2Cl)c1 [Compound I-27, 3-chloro-5-((2-chloro-4-((5-cyclopropyl-3-(2,6-dichlorophenyl)isoxazol-4-yl)methoxy)phenyl)ethynyl)benzoic acid]
6.70 to 7.22	93	O=C(O)c1cc(C#Cc2ccc(OCc3c(-c4c(Cl)cccc4Cl)noc3C3CC3)cc2Cl)ccc1Cl [Compound I-29, 2-chloro-5-((2-chloro-4-((5-cyclopropyl-3-(2,6-dichlorophenyl)isoxazol-4-yl)methoxy)phenyl)ethynyl)benzoic acid]
7.22 to 7.70	> 100	O=C(O)c1cc(C#Cc2ccc(OCc3c(-c4c(Cl)cccc4Cl)noc3C3CC3)cc2Cl)cc(C(F)(F)F)c1 [Compound I-31, 3-((2-chloro-4-((5-cyclopropyl-3-(2,6-dichlorophenyl)isoxazol-4-yl)methoxy)phenyl)ethynyl)-5-(trifluoromethyl)benzoic acid]
6.70 to 7.22	94	C#Cc1cc(C#Cc2ccc(OCc3c(-c4c(Cl)cccc4Cl)noc3C3CC3)cc2Cl)cc(C(=O)O)c1 [Compound I-32, 3-((2-chloro-4-((5-cyclopropyl-3-(2,6-dichlorophenyl)isoxazol-4-yl)methoxy)phenyl)ethynyl)-5-ethynylbenzoic acid]
6.70 to 7.22	99	N#Cc1cc(C#Cc2ccc(OCc3c(-c4c(Cl)cccc4Cl)noc3C3CC3)cc2Cl)cc(C(=O)O)c1 [Compound I-33, 3-((2-chloro-4-((5-cyclopropyl-3-(2,6-dichlorophenyl)isoxazol-4-yl)methoxy)phenyl)ethynyl)-5-cyanobenzoic acid]
6.70 to 7.22	100	O=C(O)c1cccc(C#Cc2c(Cl)cc(OCc3c(-c4c(Cl)cccc4Cl)noc3C3CC3)cc2Cl)c1 [Compound I-34, 3-((2,6-dichloro-4-((5-cyclopropyl-3-(2,6-dichlorophenyl)isoxazol-4-yl)methoxy)phenyl)ethynyl)benzoic acid]
6.00 to 6.70	86	O=C(O)c1cccc(C#Cc2ccc(OCc3c(-c4c(Cl)cccc4Cl)noc3C3CC3)cc2Cl)c1Cl [Compound I-35, 2-chloro-3-((2-chloro-4-((5-cyclopropyl-3-(2,6-dichlorophenyl)isoxazol-4-yl)methoxy)phenyl)ethynyl)benzoic acid]
6.70 to 7.22	93	O=C(O)c1cccc(C#Cc2ccc(OCc3c(-c4c(Cl)cccc4Cl)noc3C3CC3)cc2Cl)c1F [Compound I-36, 3-((2-chloro-4-((5-cyclopropyl-3-(2,6-dichlorophenyl)isoxazol-4-yl)methoxy)phenyl)ethynyl)-2-fluorobenzoic acid]
6.70 to 7.22	94	O=C(O)c1cc(C#Cc2ccc(OCc3c(-c4c(Cl)cccc4Cl)noc3C3CC3)cc2Cl)ccc1F [Compound I-37, 5-((2-chloro-4-((5-cyclopropyl-3-(2,6-dichlorophenyl)isoxazol-4-yl)methoxy)phenyl)ethynyl)-2-fluorobenzoic acid]
6.00 to 6.70	85	O=C(O)c1cc(C#Cc2ccc(OCc3c(-c4c(Cl)cccc4Cl)noc3C3CC3)cc2Cl)cc(OC(F)(F)F)c1 [Compound I-39, 3-((2-chloro-4-((5-cyclopropyl-3-(2,6-dichlorophenyl)isoxazol-4-yl)methoxy)phenyl)ethynyl)-5-(trifluoromethoxy)benzoic acid]
